Values belong to the compound of their own block, whether it stands above or below them. Active and inactive are the calls of the source.
Legend:
[1] = target: Macrophage-stimulating protein receptor (Homo sapiens, UniProt Q04912); assay: Navigating the Kinome. Panel member name: MST1R; assay type: functional
[2] = target: Vascular endothelial growth factor receptor 2 (Homo sapiens, UniProt P35968); assay type: functional
[3] = target: Tyrosine-protein kinase Fer (Homo sapiens, UniProt P16591); assay type: functional;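 note: FER tested as one member of a kinome panel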
[4] = target: Serine/threonine-protein kinase PAK 1 (Homo sapiens, UniProt Q13153); assay type: functional
[5] = target: Receptor tyrosine-protein kinase erbB-4 (Homo sapiens, UniProt Q15303); assay type: functional;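 note: ERBB4 member of a kinome-wide kinase profiling panel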
[6] = target: Receptor tyrosine-protein kinase erbB-2 (Homo sapiens, UniProt P04626); assay: Navigating the Kinome. Panel member name: ERBB2; assay type: functional
[7] = target: Interleukin-1 receptor-associated kinase 1 (Homo sapiens, UniProt P51617); assay type: functional;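 note: IRAK1 tested as one member of a kinome panel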
[8] = target: Protein kinase C zeta type (Homo sapiens, UniProt Q05513); assay type: functional;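 note: measured as one member of a broad kinase profiling panel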
Protein kinase C zeta type, sequence (Q05513 whole entry): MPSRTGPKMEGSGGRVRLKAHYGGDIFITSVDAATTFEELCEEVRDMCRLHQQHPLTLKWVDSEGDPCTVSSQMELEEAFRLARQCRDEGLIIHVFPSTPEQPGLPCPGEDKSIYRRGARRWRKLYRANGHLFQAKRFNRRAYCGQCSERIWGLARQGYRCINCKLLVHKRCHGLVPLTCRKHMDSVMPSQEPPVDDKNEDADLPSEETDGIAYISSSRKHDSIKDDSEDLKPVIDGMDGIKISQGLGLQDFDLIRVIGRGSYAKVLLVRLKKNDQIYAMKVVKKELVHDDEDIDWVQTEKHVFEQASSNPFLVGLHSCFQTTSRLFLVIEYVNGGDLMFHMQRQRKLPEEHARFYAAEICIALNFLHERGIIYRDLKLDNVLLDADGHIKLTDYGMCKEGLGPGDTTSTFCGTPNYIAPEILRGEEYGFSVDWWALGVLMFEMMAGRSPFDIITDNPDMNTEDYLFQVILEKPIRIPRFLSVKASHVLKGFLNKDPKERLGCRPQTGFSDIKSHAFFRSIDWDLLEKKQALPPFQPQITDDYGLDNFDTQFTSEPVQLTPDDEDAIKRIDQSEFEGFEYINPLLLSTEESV

[9] = target: Dual specificity mitogen-activated protein kinase kinase 1 (Homo sapiens, UniProt Q02750); assay: Navigating the Kinome. Panel member name: MAP2K1; assay type: functional
[10] = target: Serine/threonine-protein kinase PLK1 (Homo sapiens, UniProt P53350); assay type: functional;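 note: PLK1 measured as one member of a kinome-wide profiling panel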
Serine/threonine-protein kinase PLK1, sequence (P53350 whole entry): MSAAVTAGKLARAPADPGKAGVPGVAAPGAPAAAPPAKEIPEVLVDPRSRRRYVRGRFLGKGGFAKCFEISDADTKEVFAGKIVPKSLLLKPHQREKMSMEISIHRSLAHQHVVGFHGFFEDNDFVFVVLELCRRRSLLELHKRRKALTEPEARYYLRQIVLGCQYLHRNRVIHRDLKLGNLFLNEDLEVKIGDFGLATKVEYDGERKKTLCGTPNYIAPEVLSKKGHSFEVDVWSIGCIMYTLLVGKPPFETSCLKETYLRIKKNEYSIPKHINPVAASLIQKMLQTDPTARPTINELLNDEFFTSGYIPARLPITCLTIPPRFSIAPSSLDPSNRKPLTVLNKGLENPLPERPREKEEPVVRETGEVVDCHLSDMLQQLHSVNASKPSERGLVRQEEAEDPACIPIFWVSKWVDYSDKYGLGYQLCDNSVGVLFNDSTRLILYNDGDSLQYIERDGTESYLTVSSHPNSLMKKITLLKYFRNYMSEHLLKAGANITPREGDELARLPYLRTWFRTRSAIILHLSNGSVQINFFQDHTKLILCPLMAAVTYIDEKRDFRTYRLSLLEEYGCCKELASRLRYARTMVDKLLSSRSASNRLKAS

[11] = target: Serine/threonine-protein kinase pim-1 (Homo sapiens, UniProt P11309); assay type: functional
[12] = target: Tyrosine-protein kinase Srms (Homo sapiens, UniProt Q9H3Y6); assay type: functional;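 note: SRMS measured as one member of a kinome-wide kinase profiling panel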
[13] = target: Tyrosine-protein kinase JAK2 (Homo sapiens, UniProt O60674); assay type: functional;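 note: JAK2 tested as one member of a kinase panel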
Tyrosine-protein kinase JAK2, sequence (O60674 whole entry): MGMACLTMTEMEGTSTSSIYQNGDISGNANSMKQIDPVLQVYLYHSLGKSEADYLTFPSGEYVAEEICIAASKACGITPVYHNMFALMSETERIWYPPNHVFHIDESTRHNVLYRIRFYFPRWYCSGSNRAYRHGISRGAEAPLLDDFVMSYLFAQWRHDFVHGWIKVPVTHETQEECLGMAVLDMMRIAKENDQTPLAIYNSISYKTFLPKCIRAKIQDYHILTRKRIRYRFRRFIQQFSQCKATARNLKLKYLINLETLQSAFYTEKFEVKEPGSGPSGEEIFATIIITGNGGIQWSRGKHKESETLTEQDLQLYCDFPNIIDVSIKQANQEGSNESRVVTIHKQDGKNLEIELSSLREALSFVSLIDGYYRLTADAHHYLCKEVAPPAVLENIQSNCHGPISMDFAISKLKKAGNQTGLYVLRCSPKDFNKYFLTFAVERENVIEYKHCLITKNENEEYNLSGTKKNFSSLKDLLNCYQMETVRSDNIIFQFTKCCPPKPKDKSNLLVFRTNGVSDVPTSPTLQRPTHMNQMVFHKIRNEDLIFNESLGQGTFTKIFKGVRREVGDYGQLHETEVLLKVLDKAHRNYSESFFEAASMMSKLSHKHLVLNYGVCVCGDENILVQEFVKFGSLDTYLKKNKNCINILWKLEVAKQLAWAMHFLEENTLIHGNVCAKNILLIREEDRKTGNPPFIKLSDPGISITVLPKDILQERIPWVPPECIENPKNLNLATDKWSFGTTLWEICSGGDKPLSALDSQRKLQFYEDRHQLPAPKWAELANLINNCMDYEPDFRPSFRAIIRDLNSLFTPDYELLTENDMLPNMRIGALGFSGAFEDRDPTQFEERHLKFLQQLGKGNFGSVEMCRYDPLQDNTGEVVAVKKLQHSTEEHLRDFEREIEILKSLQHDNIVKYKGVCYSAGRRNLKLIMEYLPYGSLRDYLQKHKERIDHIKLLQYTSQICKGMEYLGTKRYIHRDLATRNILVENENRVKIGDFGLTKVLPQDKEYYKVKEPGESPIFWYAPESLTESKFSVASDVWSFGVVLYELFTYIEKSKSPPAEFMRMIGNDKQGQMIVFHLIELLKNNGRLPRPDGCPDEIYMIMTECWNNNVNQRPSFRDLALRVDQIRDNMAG

[14] = target: G protein-coupled receptor kinase 5 (Homo sapiens, UniProt P34947); assay: Navigating the Kinome. Panel member name: GPRK5; assay type: functional
[15] = target: Ribosomal protein S6 kinase alpha-3 (Homo sapiens, UniProt P51812); assay type: functional;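 note: measured within a kinome-wide profiling panel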
Ribosomal protein S6 kinase alpha-3, sequence (P51812 whole entry): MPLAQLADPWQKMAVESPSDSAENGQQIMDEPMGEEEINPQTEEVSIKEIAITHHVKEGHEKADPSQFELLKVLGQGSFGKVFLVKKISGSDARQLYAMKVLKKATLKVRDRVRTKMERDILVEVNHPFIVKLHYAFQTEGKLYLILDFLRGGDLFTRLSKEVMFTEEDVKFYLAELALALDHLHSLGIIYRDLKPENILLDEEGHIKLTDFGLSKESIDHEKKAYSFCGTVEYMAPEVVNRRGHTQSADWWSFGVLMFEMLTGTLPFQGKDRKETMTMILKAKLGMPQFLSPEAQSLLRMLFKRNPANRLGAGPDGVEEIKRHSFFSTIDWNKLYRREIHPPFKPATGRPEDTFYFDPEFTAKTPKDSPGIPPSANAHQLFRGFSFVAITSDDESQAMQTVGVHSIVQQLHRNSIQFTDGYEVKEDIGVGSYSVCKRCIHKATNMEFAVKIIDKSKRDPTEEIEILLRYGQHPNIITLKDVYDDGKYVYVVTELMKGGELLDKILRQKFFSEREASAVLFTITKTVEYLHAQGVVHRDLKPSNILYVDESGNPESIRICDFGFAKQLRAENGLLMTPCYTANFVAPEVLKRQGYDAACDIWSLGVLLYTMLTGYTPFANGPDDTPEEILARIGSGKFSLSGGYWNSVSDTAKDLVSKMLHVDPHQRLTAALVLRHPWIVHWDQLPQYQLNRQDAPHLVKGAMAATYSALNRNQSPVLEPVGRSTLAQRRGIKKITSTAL

[16] = target: Mast/stem cell growth factor receptor Kit (Homo sapiens, UniProt P10721); assay type: functional;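 note: KIT entry within a kinase panel assay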
[17] = target: Serine/threonine-protein kinase DCLK1 (Homo sapiens, UniProt O15075); assay type: functional;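 note: affinity for DCLK1 (listed as DCAMKL1) measured as one member of a kinome-wide kinase profiling panel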
Serine/threonine-protein kinase DCLK1, sequence (O15075 whole entry): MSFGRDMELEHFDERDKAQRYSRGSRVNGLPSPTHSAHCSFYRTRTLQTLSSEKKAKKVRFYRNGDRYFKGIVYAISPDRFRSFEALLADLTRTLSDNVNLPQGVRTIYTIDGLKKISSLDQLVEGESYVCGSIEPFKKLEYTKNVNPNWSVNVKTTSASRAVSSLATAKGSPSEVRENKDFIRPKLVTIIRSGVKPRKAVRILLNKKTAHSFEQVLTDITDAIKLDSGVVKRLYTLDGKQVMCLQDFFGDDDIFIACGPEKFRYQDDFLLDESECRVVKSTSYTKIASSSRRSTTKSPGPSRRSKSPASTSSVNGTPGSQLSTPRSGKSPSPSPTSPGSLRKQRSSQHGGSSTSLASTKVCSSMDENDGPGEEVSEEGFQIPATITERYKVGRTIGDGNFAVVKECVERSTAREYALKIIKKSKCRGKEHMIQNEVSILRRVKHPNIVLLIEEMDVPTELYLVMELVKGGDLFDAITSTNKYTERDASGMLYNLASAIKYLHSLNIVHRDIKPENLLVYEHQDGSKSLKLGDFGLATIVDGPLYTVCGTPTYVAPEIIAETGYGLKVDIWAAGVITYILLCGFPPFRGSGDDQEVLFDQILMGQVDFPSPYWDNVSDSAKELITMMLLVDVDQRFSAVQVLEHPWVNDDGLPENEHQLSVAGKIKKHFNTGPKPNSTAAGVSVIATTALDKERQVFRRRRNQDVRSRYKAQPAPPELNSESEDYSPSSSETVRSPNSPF

[18] = target: Ribosomal protein S6 kinase beta-1 (Homo sapiens, UniProt P23443); assay type: functional;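 note: measured as one member of a kinome-wide profiling panel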
[19] = target: BDNF/NT-3 growth factors receptor (Homo sapiens, UniProt Q16620); assay type: functional;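 note: NTRK2 measured as one member of a broad kinome-wide kinase profiling panel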
BDNF/NT-3 growth factors receptor, sequence (Q16620 whole entry): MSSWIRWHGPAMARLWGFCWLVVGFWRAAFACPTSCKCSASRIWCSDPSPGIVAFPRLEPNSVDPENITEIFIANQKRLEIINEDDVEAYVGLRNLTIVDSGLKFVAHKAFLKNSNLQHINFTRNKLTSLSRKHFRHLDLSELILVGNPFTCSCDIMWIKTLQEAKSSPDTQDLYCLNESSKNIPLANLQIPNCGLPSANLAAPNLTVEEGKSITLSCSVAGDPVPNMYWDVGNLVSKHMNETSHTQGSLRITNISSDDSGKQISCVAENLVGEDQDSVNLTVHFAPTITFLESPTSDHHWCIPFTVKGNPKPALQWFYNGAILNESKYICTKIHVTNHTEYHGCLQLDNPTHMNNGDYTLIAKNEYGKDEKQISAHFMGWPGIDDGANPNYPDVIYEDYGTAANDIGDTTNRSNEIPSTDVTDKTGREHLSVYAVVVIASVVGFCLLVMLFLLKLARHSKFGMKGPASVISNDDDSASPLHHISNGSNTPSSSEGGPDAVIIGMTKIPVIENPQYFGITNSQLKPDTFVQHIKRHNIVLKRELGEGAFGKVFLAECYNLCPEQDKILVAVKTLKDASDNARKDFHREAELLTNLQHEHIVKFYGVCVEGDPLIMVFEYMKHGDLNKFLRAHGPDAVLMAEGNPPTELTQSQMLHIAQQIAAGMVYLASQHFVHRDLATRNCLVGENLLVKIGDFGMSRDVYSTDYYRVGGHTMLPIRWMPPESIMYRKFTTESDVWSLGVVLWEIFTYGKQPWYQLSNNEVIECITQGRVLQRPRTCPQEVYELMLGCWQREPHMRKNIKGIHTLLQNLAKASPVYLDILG

[20] = target: Tyrosine-protein kinase Lyn (Homo sapiens, UniProt P07948); assay type: functional;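 note: lyn as one member of a kinase panel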
[21] = target: cGMP-dependent protein kinase 1 (Homo sapiens, UniProt Q13976); assay type: functional;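 note: value from a kinome panel screen with PRKG1 as the panel member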
[22] = target: Casein kinase I isoform delta (Homo sapiens, UniProt P48730); assay type: functional;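 note: measured as one member (CSNK1D) of a kinome panel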
[23] = target: Mitogen-activated protein kinase 1 (Homo sapiens, UniProt P28482); assay type: functional
Mitogen-activated protein kinase 1, sequence (P28482 whole entry): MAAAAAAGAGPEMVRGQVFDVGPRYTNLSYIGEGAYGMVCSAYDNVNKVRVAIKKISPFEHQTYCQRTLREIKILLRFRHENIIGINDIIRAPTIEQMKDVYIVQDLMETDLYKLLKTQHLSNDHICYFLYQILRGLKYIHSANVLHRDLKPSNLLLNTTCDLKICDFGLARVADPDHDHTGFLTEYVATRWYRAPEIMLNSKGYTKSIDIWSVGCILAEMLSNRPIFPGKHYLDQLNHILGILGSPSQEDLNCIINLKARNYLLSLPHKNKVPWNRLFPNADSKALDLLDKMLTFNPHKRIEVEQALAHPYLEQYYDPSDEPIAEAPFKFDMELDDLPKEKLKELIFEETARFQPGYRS

Caspase-6 = target: T1, Caspase-6 (Homo sapiens, UniProt P55212); assay: inhibition of CASP6 peptide cleavage – biochemical, VEID-R110 fluorescence, cherry-pick, dose response (AID 720632)
T1 sequence (P55212 whole entry): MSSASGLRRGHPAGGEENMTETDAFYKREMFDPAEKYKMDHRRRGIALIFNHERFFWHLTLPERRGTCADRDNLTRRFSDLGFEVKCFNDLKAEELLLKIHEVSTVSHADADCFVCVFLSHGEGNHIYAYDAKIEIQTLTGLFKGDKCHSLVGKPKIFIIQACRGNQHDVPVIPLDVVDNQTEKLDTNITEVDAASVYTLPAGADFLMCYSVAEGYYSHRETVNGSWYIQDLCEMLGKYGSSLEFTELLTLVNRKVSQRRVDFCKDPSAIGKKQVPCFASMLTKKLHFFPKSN

[24] = target: Histone-lysine N-methyltransferase NSD2 (Homo sapiens, UniProt O96028); assay type: biochemical
Genome polyprotein = Genome polyprotein (dengue virus type 2, UniProt P29990); assay: flavivirus cap methylation enzyme inhibition – biochemical, confirmation dose response, primary screen (AID 588689); assay type: functional
[25] = target: Serine/threonine-protein phosphatase (Homo sapiens, UniProt Q9BPW0); assay: inhibition of protein phosphatase 5 activity – biochemical, fluorescence, dose response (AID 2395)
Caspase-3 = target: T2, Caspase-3 (Homo sapiens, UniProt P42574); assay: activation of caspase-3 zymogen – biochemical, absorbance, dose response (AID 489014)
T2 sequence (P42574 whole entry): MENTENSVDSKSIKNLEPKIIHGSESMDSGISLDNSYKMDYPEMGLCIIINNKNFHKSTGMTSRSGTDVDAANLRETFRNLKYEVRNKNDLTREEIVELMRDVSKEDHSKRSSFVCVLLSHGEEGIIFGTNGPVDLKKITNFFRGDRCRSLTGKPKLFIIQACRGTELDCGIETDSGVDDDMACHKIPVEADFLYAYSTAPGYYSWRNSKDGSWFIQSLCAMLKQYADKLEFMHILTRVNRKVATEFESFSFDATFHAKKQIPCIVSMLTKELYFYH

[26] = Trypanosoma cruzi growth suppression in host cells – NIH3T3 host cells, beta-gal luminescence, confirmation (AID 2044); assay type: functional, cell-based;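 note: intracellular parasites grown in NIH/3T3 mouse fibroblasts as host cells; luminescent beta-galactosidase reporter signal from transgenic T. cruzi replicating inside host cells; inhibitors lower the luminescence signal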
[27] = target: T3, Microphthalmia-associated transcription factor (Homo sapiens, UniProt O75030); assay: reducers of TRPM1 reporter luminescence, concentration series – cell-based, SK-MEL-5, cherry-picked, set 3, MITF inhibitor project, dose response (AID 493073); assay type: functional;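 note: SK-MEL-5 melanoma cells with luciferase driven by the MITF target TRPM1 promoter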
T3 sequence (O75030 whole entry): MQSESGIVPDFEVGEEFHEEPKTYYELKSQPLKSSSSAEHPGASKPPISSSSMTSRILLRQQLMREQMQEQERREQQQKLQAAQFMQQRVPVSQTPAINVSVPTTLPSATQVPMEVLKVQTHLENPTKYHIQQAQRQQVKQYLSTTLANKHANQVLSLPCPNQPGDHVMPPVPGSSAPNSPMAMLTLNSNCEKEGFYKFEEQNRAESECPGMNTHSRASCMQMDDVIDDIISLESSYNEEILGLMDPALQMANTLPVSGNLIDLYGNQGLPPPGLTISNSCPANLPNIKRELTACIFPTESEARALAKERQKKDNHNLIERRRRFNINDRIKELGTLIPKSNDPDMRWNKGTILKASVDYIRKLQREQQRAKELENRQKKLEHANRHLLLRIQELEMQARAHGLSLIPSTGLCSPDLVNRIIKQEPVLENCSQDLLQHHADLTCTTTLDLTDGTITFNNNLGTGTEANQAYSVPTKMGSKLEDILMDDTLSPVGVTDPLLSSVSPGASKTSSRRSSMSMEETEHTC

- Ki [1]: > 3980 nM (inactive)
- Ki [2]: 2510 nM (active)
- Ki [3]: 398 nM (active)
- Ki [4]: > 10000 nM (inactive)
- Ki [5]: > 3980 nM (inactive)
- Ki [6]: > 1580 nM (inactive)
- Ki [7]: 50.1 nM (active)
- Ki [8]: > 7940 nM (inactive)
- Ki [9]: 200 nM (active)
- Ki [10]: 501 nM (active)
- Ki [11]: > 5010 nM (inactive)
- Ki [12]: > 1580 nM (inactive)
- Ki [13]: > 2510 nM (inactive)
- Ki [14]: > 3980 nM (inactive)
- Ki [15]: > 2000 nM (inactive)
- Ki [16]: > 1260 nM (inactive)
- Ki [17]: > 10000 nM (inactive)
- Ki [18]: 2510 nM (active)
- Ki [19]: 2000 nM (active)
- Ki [20]: > 1580 nM (inactive)
- Ki [21]: 794 nM (active)
- Ki [22]: 63.1 nM (active)
- Ki [23]: 398 nM (active)
SMILES: Clc1cc(-c2c[nH]c3ncccc23)nc(NC2CCCCC2)n1

SMILES: CC(C)N(C(=O)Nc1ccc2nsnc2c1)C(C)C
- AC50 (Caspase-6): 5600 nM (active)

SMILES: NS(=O)(=O)c1ccc(NC2=CC(=O)C(=O)c3ccccc32)cc1
- AC50 [24]: 3100 nM (active)
- IC50 (Genome polyprotein): 39000 nM (active)
- IC50 [25]: > 67000 nM (not active)

SMILES: O=C(N/N=C/c1ccc(O)cc1O)c1ccc(CN2C(=O)c3cccc4cccc2c34)cc1
- EC50 (Caspase-3): > 85300 nM (inactive)

SMILES: CCC(=O)NC(c1ccccc1OC)c1ccc2cccnc2c1O (stereo not given)
- EC50 [26]: 951 nM (active)
- AC50 [27]: 6700 nM (active)
